Laboratory results reported in patent publication US8710198B2, “Caprazene as a novel compound and derivatives thereof, and caprazol as a novel compound and derivatives thereof” (Meiji Seika Pharma Co., Ltd., priority 2003, dated 2014).

Assays:
Type in all cases: cell-based
[1] = system: Mycobacterium smegmatis ATCC607; test: Minimum growth inhibitory concentration on agar culture medium with 1% glycerine by serial dilution method; conditions: agar culture medium with the addition of 1% glycerine
Protocol: (§1) Minimum growth inhibitory concentrations (mcg/ml) of caprazene-1′″-amide derivatives of the formula (II) against some of microorganisms were measured on an agar culture medium by a serial dilution method according to the standard method as provided by Japanese Society of Chemotherapy. For the cultivation of Mycobacterium smegmatis (one of […]), however, there was used an agar culture medium with the addition of 1% glycerine (the same applies to in the following tests).
(§2) Minimum growth inhibitory concentrations (mcg/ml) of some of the caprazene-1′″-ester derivative of the formula (III) against some of microorganisms were measured on an agar culture medium by a serial dilution method according to the standard method as provided by Japanese Society of Chemotherapy.
(§3) Minimum growth inhibitory concentrations (mcg/ml) of some of the caprazol-1′″-amide derivative of the formula (V) against a variety of microorganisms were measured on an agar medium by a serial dilution method according to the standard method as provided by Japanese Society of Chemotherapy.
as §3, with “caprazol-1′″-amide-3′″-ester” for “caprazol-1′″-amide”, “(VI)” for “(V)”
as §3, with “caprazol-3′″-ester derivative or caprazol-1′″-ester-3′″-ester” for “caprazol-1′″-amide”, “(VII)” for “(V)”

[2] = system: Staphylococcus aureus FDA209P; test: Minimum growth inhibitory concentration on agar culture medium by serial dilution method (Japanese Society of Chemotherapy)
Protocol: as §1, §2, §3
as §3, with “caprazol-1′″-amide-3′″-ester” for “caprazol-1′″-amide”, “(VI)” for “(V)”
as §3, with “caprazol-3′″-ester derivative or caprazol-1′″-ester-3′″-ester” for “caprazol-1′″-amide”, “(VII)” for “(V)”
(§4) Minimum growth inhibitory concentrations (mcg/ml) of some of the derivative of the formula (VIII) against a variety of microorganisms were measured on an agar medium by a serial dilution method according to the standard method as provided by Japanese Society of Chemotherapy.

Micrococcus luteus FDA16 = test: as above
Protocol: as §1, §2, §3
as §4, with “of the caprazol-1′″-amide-3′″-ester derivative of” for “of the derivative of”, “the formula (VI) against a” for “the formula (VIII) against a”
as §4, with “of the caprazol-3′″-ester derivative or caprazol-1′″-ester-3′″-ester derivative of” for “of the derivative of”, “the formula (VII) against a” for “the formula (VIII) against a”
as §4

| SMILES | Minimum growth inhibitory concentration (mcg/ml) against bacteria Mycobacterium smegmatis ATCC607 [1] | Minimum growth inhibitory concentration (mcg/ml) against bacteria Staphylococcus aureus FDA209P [2] | Minimum growth inhibitory concentration (mcg/ml) against bacteria Micrococcus luteus FDA16 (Micrococcus luteus FDA16) |
| --- | --- | --- | --- |
| CCCCCCCCCOc1ccc(NC(=O)C2=CCN(C)C(C(OC3OC(CN)C(O)C3O)C3OC(n4ccc(=O)[nH]c4=O)C(O)C3O)C(=O)N2C)cc1 (stereo not drawn) [Compound II-23] | 0.78 µg/mL | 1.56 µg/mL | 0.39 µg/mL |
| CCCCCCNC(=O)C1=CCN(C)C(C(OC2OC(CN)C(O)C2O)C2OC(n3ccc(=O)[nH]c3=O)C(O)C2O)C(=O)N1C (stereo not drawn) [Compound II-A] | 100 µg/mL | >100 µg/mL | 3.13 µg/mL |
| CCCCCCCNC(=O)C1=CCN(C)C(C(OC2OC(CN)C(O)C2O)C2OC(n3ccc(=O)[nH]c3=O)C(O)C2O)C(=O)N1C (stereo not drawn) [Compound II-B] | 25 µg/mL | 25 µg/mL | 1.56 µg/mL |
| CCCCCCCCNC(=O)C1=CCN(C)C(C(OC2OC(CN)C(O)C2O)C2OC(n3ccc(=O)[nH]c3=O)C(O)C2O)C(=O)N1C (stereo not drawn) [Compound II-C] | 12.5 µg/mL | 6.25 µg/mL | 0.78 µg/mL |
| CCCCCCCCCNC(=O)C1=CCN(C)C(C(OC2OC(CN)C(O)C2O)C2OC(n3ccc(=O)[nH]c3=O)C(O)C2O)C(=O)N1C (stereo not drawn) [Compound II-D] | 3.13 µg/mL | 6.25 µg/mL | 0.39 µg/mL |
| CCCCCCCCCCNC(=O)C1=CCN(C)C(C(OC2OC(CN)C(O)C2O)C2OC(n3ccc(=O)[nH]c3=O)C(O)C2O)C(=O)N1C (stereo not drawn) [Compound II-E] | 0.78 µg/mL | 25 µg/mL | 0.39 µg/mL |
| CCCCCCCCCCCNC(=O)C1=CCN(C)C(C(OC2OC(CN)C(O)C2O)C2OC(n3ccc(=O)[nH]c3=O)C(O)C2O)C(=O)N1C (stereo not drawn) [Compound II-F] | 0.39 µg/mL | 1.56 µg/mL | 0.39 µg/mL |
| CCCCCCCCCCCCNC(=O)C1=CCN(C)C(C(OC2OC(CNC(=O)OC(C)(C)C)C(O)C2O)C2OC(n3ccc(=O)[nH]c3=O)C(O)C2O)C(=O)N1C (stereo not drawn) [Compound II-G-N-Boc] | 50 µg/mL | 50 µg/mL | 50 µg/mL |
| CCCCCCCCCCCCNC(=O)C1=CCN(C)C(C(OC2OC(CN)C(O)C2O)C2OC(n3ccc(=O)[nH]c3=O)C(O)C2O)C(=O)N1C (stereo not drawn) [Compound II-G] | 0.39 µg/mL | 3.13 µg/mL | 0.39 µg/mL |
| CCCCCCCCCCCCCNC(=O)C1=CCN(C)C(C(OC2OC(CNC(=O)OC(C)(C)C)C(O)C2O)C2OC(n3ccc(=O)[nH]c3=O)C(O)C2O)C(=O)N1C (stereo not drawn) [Compound II-H-N-Boc] | 25 µg/mL | 25 µg/mL | 12.5 µg/mL |
| CCCCCCCCCCCCCNC(=O)C1=CCN(C)C(C(OC2OC(CN)C(O)C2O)C2OC(n3ccc(=O)[nH]c3=O)C(O)C2O)C(=O)N1C (stereo not drawn) [Compound II-H] | <0.20 µg/mL | 3.13 µg/mL | 0.78 µg/mL |
| CCCCCCCCCCCCCCNC(=O)C1=CCN(C)C(C(OC2OC(CNC(=O)OC(C)(C)C)C(O)C2O)C2OC(n3ccc(=O)[nH]c3=O)C(O)C2O)C(=O)N1C (stereo not drawn) [Compound II-I-N-Boc] | 25 µg/mL | 12.5 µg/mL | 12.5 µg/mL |
